Measurements from PubChem BioAssay (NCI).
Values joined by “and” are separate entries in the source; they are usually repeats but may differ in a detail not shown here. Identical values can stand only once.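 In this assay, cells in 96-well plates receive the compound at five concentrations for 48 hours. Endpoints are linearly interpolated between the surrounding concentrations. GI50 marks 50% less growth. TGI marks complete inhibition of growth.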

Columns and labels:
Assay in all cases: NCI anticancer screen, dose series, 48 h
NCI-H522 lung = tested on: NCI-H522 lung
HOP-62 NSCLC = tested on: HOP-62 NSCLC
SF-539 CNS = tested on: SF-539 CNS
MOLT-4 leukemia = tested on: MOLT-4 leukemia
OVCAR-3 ovarian = tested on: OVCAR-3 ovarian
EKVX NSCLC = tested on: EKVX NSCLC
UACC-62 melanoma = tested on: UACC-62 melanoma
NCI-H226 lung = tested on: NCI-H226 lung
A498 renal = tested on: A498 renal

SMILES	TGI (NCI-H522 lung)	TGI (HOP-62 NSCLC)	TGI (SF-539 CNS)	TGI (MOLT-4 leukemia)	TGI (OVCAR-3 ovarian)	TGI (EKVX NSCLC)	TGI (UACC-62 melanoma)	TGI (NCI-H226 lung)	TGI (A498 renal)	GI50 (HOP-62 NSCLC)	GI50 (SF-539 CNS)	GI50 (MOLT-4 leukemia)	GI50 (OVCAR-3 ovarian)	GI50 (EKVX NSCLC)	GI50 (UACC-62 melanoma)	GI50 (NCI-H226 lung)
CC1=C(C(=O)CC(=O)C(=O)Nc2cc(C)ccc2C)Sc2ccccc2N1	> 100 µM	> 100 µM	> 100 µM	> 100 µM	> 100 µM	> 100 µM	> 100 µM	> 100 µM								
C=C1C(=O)OC2C/C(C)=C/CC/C(C)=C/CCC3(COC(C)=O)OC3CC12 (stereo not given)	2.9 µM	34.7 µM	7.85 µM	26.3 µM	19.2 µM	38.6 µM	27.4 µM		27 µM							
CCC(=O)c1c(NOC2OCC(OC(C)=O)C(OC(C)=O)C2OC(C)=O)nc(OC)n(C)c1=O (stereo not given)		> 100 µM	> 100 µM	> 100 µM	> 100 µM	> 100 µM	> 100 µM	> 100 µM	> 100 µM							
Cc1ccccc1NC(=O)c1cc(-c2ccc([N+](=O)[O-])cc2)nc(=S)[nH]1		> 100 µM	> 100 µM	> 100 µM	> 100 µM	> 100 µM	> 100 µM	> 100 µM								
CCOC(=O)C1=C(Nc2ccc(Cl)cc2Cl)OCC1=O	> 100 µM	> 100 µM	> 100 µM	> 100 µM	> 100 µM		> 100 µM	> 100 µM								
COC/C=C\COC		> 100 µM		> 100 µM	> 100 µM	> 100 µM	> 100 µM	> 100 µM								
CC(=O)N/N=C1\CC(C)(C)C2CCC1C2 (stereo not given)	> 100 µM	> 100 µM	> 100 µM	> 100 µM	> 100 µM	> 100 µM	> 100 µM		> 100 µM							
CCCNC(=O)C1C(=O)C(=O)N(CCC)C1=O (stereo not given)	> 100 µM	> 100 µM	> 100 µM	> 100 µM	> 100 µM	> 100 µM	> 100 µM		> 100 µM							
N/N=C1\C(=O)N(C2CCCCCC2)C(=O)C1C(=O)NC1CCCCCC1 (stereo not given)	60 µM	> 10 µM	56.1 µM	55.7 µM	> 100 µM	> 100 µM	41.6 µM		> 100 µM							
CCC[CH2][Sn]([Cl])([Cl])[CH2]CCC		3.36 µM	2.19 µM	2.53 µM	2.32 µM	2.25 µM	1.63 µM	5.01 µM		1.92 µM	0.87 µM	0.356 µM	1.03 µM	0.848 µM	0.429 µM	1.82 µM
COc1ccc(NC(=O)CC2SC(=Nc3ccccc3C)NC2=O)c([N+](=O)[O-])c1 (stereo not given)	80.5 µM	> 100 µM	> 100 µM	> 100 µM	> 100 µM		> 100 µM	> 100 µM								
CCc1ccc(NC(=O)NC(=O)c2ccccc2[N+](=O)[O-])cc1Oc1ncc(Cl)cn1		75.3 µM		> 100 µM	13.9 µM	> 100 µM	> 100 µM	0.0796 µM	9.1 µM							
C=C(CC(NC(=O)c1ccc(C(CC)Cc2cnc3nc(N)nc(N)c3n2)cc1)C(=O)O)C(=O)O (stereo not given)		0.742 µM	> 100 µM	> 100 µM		> 100 µM	> 100 µM	> 100 µM								
COC12CCC(=O)C=C1c1ccccc1N2C(C)=O (stereo not given)		> 100 µM	> 100 µM	> 100 µM	> 100 µM	> 100 µM	> 100 µM		> 100 µM							
C#Cc1cccc(N2C(=O)c3c(c(-c4ccccc4)c(-c4ccc(Cc5ccc(-c6c(-c7ccccc7)c7c(c(-c8ccccc8)c6-c6ccccc6)C(=O)N(c6cccc(C#C)c6)C7=O)cc5)cc4)c(-c4ccccc4)c3-c3ccccc3)C2=O)c1	> 100 µM	> 100 µM	> 100 µM	> 100 µM	> 100 µM	> 100 µM	> 100 µM									
COc1ccc(S(=O)(=O)N2CCN(C(=O)c3ccc(-c4ccccc4)cc3)CC2C(=O)NO)cc1 (stereo not given)			4.22 µM	95.9 µM	11.2 µM and 47.6 µM	7.02 µM	12.5 µM and > 100 µM	12.5 µM and 88.9 µM			1.98 µM	15.9 µM	3.88 µM and 11.2 µM	1.61 µM		5.2 µM and 20.7 µM
CC1/C=C/[C@@]2(C)CCC(C(C)(C)O)C2C(O)C[C@](C)(O)/C=C/C1 (stereo not given in full)		> 100 µM	> 100 µM	> 100 µM	> 100 µM	> 100 µM	> 100 µM	52 µM	> 100 µM							
CCC1CC2C(=O)N(c3ccccc3)C(=O)C2c2[nH]c3ccccc3c21 (stereo not given)				> 100 µM	44.9 µM	95.3 µM	> 100 µM	33.8 µM	67.7 µM							
Cc1nn[n-]n1.N.N.N.N.N.[Cl-].[Co+3]		> 100 µM	> 100 µM	> 100 µM	> 100 µM	> 100 µM	> 100 µM	> 100 µM		> 100 µM	> 100 µM	> 100 µM	> 100 µM	> 100 µM	> 100 µM	> 100 µM
